Test results reported in PubChem BioAssay AID330 (DTP/NCI, 2004).
Where “and” joins values, the source holds several entries; their conditions need not be identical. Equal entries are not always repeated. Inconclusive results and toxic doses are left out. The calls were made as follows: active = survival T/C of 150% or more; inactive = T/C below 125% in these data.

Test system: P388 leukemia ip, CD2F1 mice, survival T/C
Experiment: NCI In Vivo Anticancer Drug Screen. Data for tumor model P388 Leukemia (intraperitoneal) in CD2F1 (CDF1) mice
Settings: endpoint: median survival time, higher = longer survival
In short: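 Mice carrying the transplanted tumor received test compound or vehicle. Survival was recorded in each group, and the value is the treated-group measurement divided by that of the vehicle-treated control group.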

[1] = dose: 50.0 mg/kg/injection, schedule: Q01DX005 (ip), vehicle: saline with Tween-80
[2] = dose: 100.0 mg/kg/injection, schedule: Q01DX005 (ip), vehicle: saline with Tween-80
[3] = dose: 200.0 mg/kg/injection, schedule: Q01DX005 (ip), vehicle: saline with Tween-80

Measured: T/C

COC1OC(C)(C(OC)OC)CCC1C (stereo unspecified)
inactive: [1] 99 % of control | [2] 94 % of control | [3] 92 % of control

O=[N+]([O-])/C=C/c1cc2c(cc1O)OCO2
inactive: dose: 75.0 mg/kg/injection, schedule: Q01DX009 (ip), vehicle: Klucel (hydroxypropylcellulose) (HPC) 115 % of control | dose: 150.0 mg/kg/injection, schedule: Q01DX009 (ip), vehicle: Klucel (hydroxypropylcellulose) (HPC) 101 % of control | dose: 300.0 mg/kg/injection, schedule: Q01DX009 (ip), vehicle: Klucel (hydroxypropylcellulose) (HPC) 115 % of control

CCOc1ccc(N2C(=O)CC(Sc3ccccc3N)C2=O)cc1 (stereo unspecified)
inactive: dose: 100.0 mg/kg/injection, schedule: Q01DX009 (ip), vehicle: saline with Tween-80 110 % of control | dose: 200.0 mg/kg/injection, schedule: Q01DX009 (ip), vehicle: saline with Tween-80 115 % of control | dose: 400.0 mg/kg/injection, schedule: Q01DX009 (ip), vehicle: saline with Tween-80 120 % of control

COC(=O)OC(C#N)c1ccc([N+](=O)[O-])cc1 (stereo unspecified)
inactive: dose: 12.5 mg/kg/injection, schedule: Q01DX009 (ip), vehicle: saline 99 % of control and 88 % of control | dose: 25.0 mg/kg/injection, schedule: Q01DX009 (ip), vehicle: saline 93 % of control and 97 % of control | dose: 50.0 mg/kg/injection, schedule: Q01DX009 (ip), vehicle: saline 90 % of control and 97 % of control | dose: 50.0 mg/kg/injection, schedule: Q01DX009 (ip), vehicle: suspension in saline 97 % of control

c1ccc(N=C2SCCCS2)cc1
inactive: dose: 50.0 mg/kg/injection, schedule: Q01DX009 (ip), vehicle: Klucel (hydroxypropylcellulose) (HPC) 103 % of control | dose: 100.0 mg/kg/injection, schedule: Q01DX009 (ip), vehicle: Klucel (hydroxypropylcellulose) (HPC) 97 % of control | dose: 200.0 mg/kg/injection, schedule: Q01DX009 (ip), vehicle: Klucel (hydroxypropylcellulose) (HPC) 105 % of control

CC12CC(C(O)(C(F)(F)F)C(F)(F)F)C(=O)C=C1CCC1C2CCC2(C)C(C(=O)CC(O)(C(F)(F)F)C(F)(F)F)CCC12 (stereo unspecified)
inactive: dose: 75.0 mg/kg/injection, schedule: Q01DX001 (sc), vehicle: steriod suspending solution 104 % of control | dose: 150.0 mg/kg/injection, schedule: Q01DX001 (sc), vehicle: steriod suspending solution 122 % of control | dose: 300.0 mg/kg/injection, schedule: Q01DX001 (sc), vehicle: steriod suspending solution 100 % of control

CN(C)c1ccc(N=C2C=CC(=O)C=C2)cc1
inactive: dose: 1.5 mg/kg/injection, schedule: Q01DX009 (ip), vehicle: saline with Tween-80 101 % of control and 104 % of control and 106 % of control | dose: 3.0 mg/kg/injection, schedule: Q01DX009 (ip), vehicle: saline with Tween-80 105 % of control and 106 % of control (2×) | dose: 6.0 mg/kg/injection, schedule: Q01DX009 (ip), vehicle: saline with Tween-80 113 % of control (2×) and 120 % of control | dose: 12.0 mg/kg/injection, schedule: Q01DX009 (ip), vehicle: saline with Tween-80 100 % of control and 103 % of control | dose: 25.0 mg/kg/injection, schedule: Q01DX009 (ip), vehicle: saline with Tween-80 102 % of control

COC1OCC(NC(=O)CNC(=O)CCCCCCCCCCCCC(C)C)C(O)C1O (stereo unspecified)
inactive: dose: 6.25 mg/kg/injection, schedule: Q01DX009 (ip), vehicle: distilled water + Tween-80 100 % of control | dose: 12.5 mg/kg/injection, schedule: Q01DX009 (ip), vehicle: distilled water + Tween-80 93 % of control | dose: 25.0 mg/kg/injection, schedule: Q01DX009 (ip), vehicle: distilled water + Tween-80 99 % of control | dose: 50.0 mg/kg/injection, schedule: Q01DX009 (ip), vehicle: distilled water + Tween-80 104 % of control | dose: 100.0 mg/kg/injection, schedule: Q01DX009 (ip), vehicle: distilled water + Tween-80 104 % of control | dose: 200.0 mg/kg/injection, schedule: Q01DX009 (ip), vehicle: distilled water + Tween-80 108 % of control

CC1OC(C)C(O)C2=C1C(=O)c1ccccc1C2=O (stereo unspecified)
inactive: dose: 60.0 mg/kg/injection, schedule: Q01DX005 (ip), vehicle: saline with Tween-80 100 % of control | dose: 120.0 mg/kg/injection, schedule: Q01DX005 (ip), vehicle: saline with Tween-80 100 % of control

O=C1NC2(CCCCC2)C(=O)N1CO
inactive: dose: 25.0 mg/kg/injection, schedule: Q01DX005 (ip), vehicle: saline with Tween-80 101 % of control and 109 % of control | [1] 100 % of control and 101 % of control | [2] 103 % of control and 108 % of control | [3] 116 % of control

CC1=C(C#N)C(=O)NC(C)C1 (stereo unspecified)
inactive: dose: 25.0 mg/kg/injection, schedule: Q01DX005 (ip), vehicle: Klucel (hydroxypropylcellulose) (HPC) 108 % of control | dose: 50.0 mg/kg/injection, schedule: Q01DX005 (ip), vehicle: Klucel (hydroxypropylcellulose) (HPC) 101 % of control | dose: 100.0 mg/kg/injection, schedule: Q01DX005 (ip), vehicle: Klucel (hydroxypropylcellulose) (HPC) 108 % of control | [2] 98 % of control | dose: 200.0 mg/kg/injection, schedule: Q01DX005 (ip), vehicle: Klucel (hydroxypropylcellulose) (HPC) 104 % of control | [3] 99 % of control | dose: 400.0 mg/kg/injection, schedule: Q01DX005 (ip), vehicle: saline with Tween-80 102 % of control | dose: 500.0 mg/kg/injection, schedule: Q01DX001 (ip), vehicle: saline with Tween-80 100 % of control | dose: 1000.0 mg/kg/injection, schedule: Q01DX001 (ip), vehicle: saline with Tween-80 99 % of control | dose: 2000.0 mg/kg/injection, schedule: Q01DX001 (ip), vehicle: saline with Tween-80 108 % of control
